Data as given in patent publication US20090076012A1, “Modulation of pathogenicity” (priority 2002, published 2009).

Tested on: bioluminescent sensor strain Escherichia coli MT102 (pSB403)
Assay: Biosensor assay: quorum sensing inhibition, bioluminescence of the sensor strain
Type: cell-based
Settings: 3oxo-C6-HSL 100 nM; bioluminescence after 4 hours at 30° C.; read-out: IC50
Method: Quorum sensing inhibition of the compounds was investigated with the aid of the bioluminescent sensor strain Escherichia coli MT102 (pSB403) (Winson et al., FEMS Microbiol. Lett. 163:185-92, 1998). Plasmid pSB403 contains the Photobacterium fischeri luxR gene together with the […] promoter region as a transcriptional fusion to the bioluminescence genes luxCDABE of Photorhabdus luminescence.
Inhibitory studies were conducted in a microtitre dish assay as follows: the E. coli sensor strain grown over night in LB medium (Sambrook et al., Molecular Cloning: A Laboratory Manual. 2nd Edn. Cold Spring Harbor Laboratory, New York, 1989) was diluted 1:4 and grown for another 1 hour at 30° C. After addition of 3oxo-C6-HSL (final concentration 100 nM) 100 μl of an exponential culture suspension were filled in the wells of a FluoroNunc Polysorp microtitre dish. The test compounds were added to the culture in different concentrations and bioluminescence was measured after 4 hours of incubation at 30° C. with a Lamda Fluoro 320 Plus reader (Bio-Tek Instruments). Inhibitor-mediated reduction of light emission was correlated with the value obtained without addition of the test compounds. IC50 values (concentration of inhibitor required for 50% inhibition of the signal compared to the signal without inhibitor) were determined by using a fitting function after drawing a graph of the activities of eight different inhibitor concentrations.

SMILES | IC50 [µM]
CCCCCCCCCC(=O)CC(=O)Nc1sccc1C(=O)OC [Compound 122, Z(3-Oxo-dodecanoylamino)-thiophene-3-carboxylic acid methyl ester] | > 100

Same assay, conditions: Escherichia coli, 4 h, 3oxo-C6-HSL 100 nM; bioluminescence after 4 hours at 30° C.

SMILES | IC50 [µM]
CCCCCCCC(=O)NNC(=O)c1cccnc1Cl [Compound 94, 2-Chloro-nicotinic acid N′-octanoyl-hydrazide] | 1 to 50
CCOC(=O)CC(=O)NNC(=O)c1sccc1Br [Compound 95] | 1 to 50
CCOC(=O)CC(=O)NNC(=O)c1cc2ccccc2s1 [Compound 96, 3-[N′-(Benzo[b]thiophene-2-carbonyl)-hydrazino]-3-oxo-propionic acid ethyl ester] | 50 to 100
O=C(NNS(=O)(=O)c1ccc(Cl)s1)c1cccs1 [Compound 97, N′-(5-Chloro-thiophen-2-sulfonyl)-thiophene-2-carboxylic acid hydrazide] | 1 to 50
CCCC(=O)NNS(=O)(=O)c1ccc(Cl)s1 [Compound 98, Butyric acid N′-(5-chloro-thiophen-2-sulfonyl)-hydrazide] | 50 to 100
CCCCCCC(=O)NNS(=O)(=O)c1ccc(Cl)s1 [Compound 99, N′-(5-Chloro-thiophen-2-sulfonyl)-heptanoic acid hydrazide] | > 100
CCCCNC(=S)NNC(=O)c1cccs1 [Compound 100, 4-Butyl-1-(thiophene-2-carbonyl)-thiosemicarbazide] | 1 to 50
CCCCCNC(=O)NNC(=O)c1cc(Br)c(Br)s1 [Compound 101, 1-(4,5-Dibromo-thiophene-2-carbonyl)-4-pentyl-semicarbazide] | > 100
O=C(NNC(=O)c1ccc(Br)s1)Nc1ccc(F)cc1C(F)(F)F [Compound 102, 1-(5-Bromo-thiophene-2-carbonyl)-4-(4-fluoro-2-trifluoromethyl-phenyl)-semicarbazide] | > 100
O=C(NNC(=O)c1cc(Br)c(Br)s1)Nc1ccc(Cl)c(C(F)(F)F)c1 [Compound 103, 4-(4-Chloro-3-trifluoromethyl-phenyl)-1-(4,5-dibromo-thiophene-2-carbonyl)-semicarbazide] | 50 to 100
O=C(NNC(=O)c1cc(Br)c(Br)s1)Nc1cccc(C(F)(F)F)c1 [Compound 104, 1-(4,5-Dibromo-thiophene-2-carbonyl)-4-(3-trifluoromethyl-phenyl)-semi-carbazide] | 1 to 50
CSc1ccc(NC(=O)NNC(=O)c2scc(C)c2Cl)cc1 [Compound 105, 1-(3-Chloro-4-methyl-thiophene-2-carbonyl)-4-(4-methylsulfanyl-phenyl)-semicarbazide] | 1 to 50
Cc1csc(C(=O)NNC(=O)Nc2ccc(Br)cc2)c1Cl [Compound 106, 4-(4-Bromo-phenyl)-1-(3-chloro-4-methyl-thiophene-2-carbonyl)-semicarbazide] | 1 to 50
O=C(NNC(=O)c1ccc(Br)s1)Nc1ccccc1CCl [Compound 107, 1-(5-Bromo-thiophene-2-carbonyl)-4-(2-chloromethyl-phenyl)-semicarbazide] | 1 to 50
O=C(NNC(=O)c1ccc(Cl)s1)Nc1ccccc1CCl [Compound 108, 4(2-Chloro-methyl-phenyl)-1-(5-chloro-thiophene-2-carbonyl)-semicarbazide] | 1 to 50
COc1ccc(NC(=O)NNC(=O)c2ccc(Br)s2)cc1 [Compound 109, 1-(5-Bromo-thiophene-2-carbonyl)-4-(4-methoxy-phenyl)-semicarbazide] | > 100
O=C(NNC(=O)c1ccc(Br)s1)Nc1c(F)cccc1F [Compound 110, 1-(5-Bromo-thiophene-2-carbonyl)-4-(2,6-difluoro-phenyl)-semicarbazide] | > 100
O=C(NNC(=O)c1sc2ccccc2c1Cl)Nc1cc(Cl)nc(Cl)c1 [Compound 111, 1-(3-Chloro-benzo[b]thiophen-2-carbonyl)-4-(2,6-dichloro-pyridinyl)-semicarbazide] | > 100
Cc1ccccc1NC(=O)NNC(=O)c1sc2ccccc2c1Cl [Compound 112, 1-(3-Chloro-benzo[b]thiophene-2-carbonyl)-4-o-tolyl-semi-carbazide] | > 100
CCCCCCC(=O)CC(=O)Nc1ccn[nH]1 [Compound 113, 3-Oxo-nonanoic acid (2H-pyrazol-3-yl)-amide] | > 100
CCCCCCC(=O)CC(=O)Nc1ccnn1C [Compound 114, 3-Oxo-nonanoic acid (2methyl-2H-pyrazol-3-yl)-amide] | > 100
CCCCCCCCCC(=O)CC(=O)Nc1ccnn1C [Compound 115, 3-Oxo-dodecanoic acid (2-methyl-2H-pyrazol-3-yl)-amide] | > 100

SMILES | IC50 [µM]
CCCCCCC(=O)CC(=O)Nc1ccnn1CC [Compound 116, 3-Oxo-nonanoic acid (2-ethyl-2H-pyrazol-3-yl)-amide] | > 100
CCCCCCCCCC(=O)CC(=O)Nc1ccnn1CC [Compound 117, 3-Oxo-dodecanoic acid (2-ethyl-2H-pyrazol-3-yl)-amide] | > 100
CCCCCCC(=O)CC(=O)Nc1cc(C)nn1C [Compound 118, 3-Oxo-nonanoic acid (2,5-dimethyl-2H-pyrazol-3-yl)-amide] | > 100
CCCCCCCCCC(=O)CC(=O)Nc1cc(C)nn1C [Compound 119, 3-Oxo-dodecanoic acid (2,5-dimethyl-2H-pyrazol-3-yl)-amide] | > 100
CCCCCCC(=O)CC(=O)Nn1cccn1 [Compound 120, 3-Oxo-nonanoic acid pyrazol-1-ylamide] | > 100
CCCCCCC(=O)CC(=O)Nc1sccc1C(=O)OC [Compound 121, 2-(3-Oxo-nonanoylamino)-thiophene-3-carboxylic acid methyl ester] | > 100
CCCCCCC(=O)CC(=O)Nc1scc(C)c1C(=O)OCC [Compound 123, 4-Methyl-2-(3-oxo-nonanoylamino)-thiophene-3-carboxylic acid ethyl ester] | > 100
CCCCCCCCCC(=O)CC(=O)Nc1scc(C)c1C(=O)OCC [Compound 124, 4-Methyl-2-(3-oxo-dodecanoylamino)-thiophene-3-carboxylic acid ethyl ester] | > 100
CCCCCCC(=O)CC(=O)Nc1cc(C)ns1 [Compound 125, 3-Oxo-nonanoic acid (3-methyl-isothiazol-5-yl)-amide] | > 100
CCCCCCCCCC(=O)CC(=O)Nc1cc(C)ns1 [Compound 126, 3-Oxo-dodecanoic acid (3-methyl-isothiazol-5-yl)-amide] | > 100
CCCCCCC(=O)CC(=O)Nc1nccs1 [Compound 127, 3-Oxo-nonanoic acid thiazol-2-ylamide] | > 100
CCCCCCCCCC(=O)CC(=O)Nc1nccs1 [Compound 128, 3-Oxo-dodecanoic acid thiazol-2-ylamide] | > 100
CCCCCCC(=O)CC(=O)Nc1nc(SC)sc1C(C)=O [Compound 129, 3-Oxo-nonanoic acid (5-acetyl-2-methylsulfanyl-thiazol-4-yl)-amide] | > 100
CCCCCCC(=O)CC(=O)Nc1ccon1 [Compound 130, 3-Oxo-nonanoic acid isoxazol-3-ylamide] | > 100
CCCCCCCCCC(=O)CC(=O)Nc1ccon1 [Compound 131, 3-Oxo-dodecanoic acid isoxazol-3-ylamide] | > 100
CCCCCCC(=O)CC(=O)Nc1cc(C)no1 [Compound 132, 3-Oxo-nonanoic acid (3-methyl-isoxazol-5-yl)-amide] | > 100
CCCCCCCCCC(=O)CC(=O)Nc1cc(C)no1 [Compound 133, 3-Oxo-dodecanoic acid (3-methyl-isoxazol-5-yl)-amide] | > 100
CCCCCCC(=O)CC(=O)Nc1nc(C)co1 [Compound 134, 3-Oxo-nonanoic acid (4-methyl-oxazol-2-yl)-amide] | > 100
CCCCCCC(=O)CC(=O)Nc1oc(C)nc1C#N [Compound 135, 3-Oxo-nonanoic acid (4cyano-2-methyl-oxazol-5-yl)-amide] | 50 to 100
CCCCCCC(=O)CC(=O)Nc1oc(C)c(C)c1C#N [Compound 136, 3-Oxo-nonanoic acid (3-cyano-4,5-dimethyl-furan-2-yl)-amide] | > 100
CCCCCCCCCC(=O)CC(=O)Nc1oc(C)c(C)c1C#N [Compound 137, 3-Oxododecanoic acid (3-cyano-4,5-dimethyl-furan-2-yl)-amide] | > 100
CCCCCCC(=O)CC(=O)Nc1ccc(C(=O)OC)o1 [Compound 138, 5-(3-Oxo-nonanoylamino)-furan-2-carboxylic acid methyl ester] | > 100
